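The compound was tested at five concentrations on cells cultured in 96-well plates, with a 48-hour exposure period. Abbreviation: GI50, concentration required for 50% inhibition of growth. At the TGI there is no net growth.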
What was measured:
Assay in all cases: NCI tumour cell line growth inhibition, 48 h
NCI/ADR-RES ovarian = test system: NCI/ADR-RES ovarian
MDA-N = test system: MDA-N
DMS 273 small cell lung = test system: DMS 273 small cell lung
RXF-631 renal = test system: RXF-631 renal
XF 498 CNS = test system: XF 498 CNS
HOP-18 NSCLC = test system: HOP-18 NSCLC

Row | Compound | TGI (NCI/ADR-RES ovarian) [µM] | GI50 (NCI/ADR-RES ovarian) [nM] | TGI (DMS 273 small cell lung) [µM] | TGI (XF 498 CNS) [µM] | TGI (HOP-18 NSCLC) [µM] | other results
1 | CCOC(=O)C#Cc1ccc([N+](=O)[O-])cc1 | 79.5 | – | – | – | – | TGI (MDA-N): 10.5 µM
2 | Cc1cccc2c1O/C(=C\c1ncc([N+](=O)[O-])n1C)C2=O | 0.783 | 200 | – | – | – | –
3 | COc1cc(C)[nH]c(=O)c1CN1CCc2c(Cl)cc([C@H](OC)C3COC3)c(Cl)c2C1=O | > 100 | > 100000 | – | – | – | –
4 | COC1OC(CBr)C(OC(c2ccccc2)(c2ccccc2)c2ccccc2)C(OC(c2ccccc2)(c2ccccc2)c2ccccc2)C1OC(c1ccccc1)(c1ccccc1)c1ccccc1 (stereo not given) | > 100 | – | – | – | – | TGI (MDA-N): > 100 µM
5 | O=c1ccccc(-c2ccc(-c3ccco3)cc2)c1O | 4.65 | 388 | – | – | – | –
6 | CCN(CC)C(=O)CNC(=O)OC(C)(C)C | – | – | > 100 | – | – | –
7 | C#Cc1cccc(Nc2ncnc3ccc(-c4cnc(Cl)c(NS(C)(=O)=O)c4)cc23)c1 | 10 | 1240 | – | – | – | –
8 | C[Si](C)(C)/C=C\CCCN1C(=O)CCC1=O | – | – | – | > 100 | – | TGI (RXF-631 renal): > 100 µM
9 | O=C1NC(=O)C(=O)C(c2nc3ccccc3s2)C1=O | – | – | > 100 | > 100 | > 100 | –
10 | CN(C)Cc1cccc(CN(C)C)[c]1[Sn]([Br])([c]1ccccc1)[c]1ccccc1 | > 100 | 44000 | – | – | – | GI50 (MDA-N): 16.6 µM; TGI (MDA-N): 38.8 µM
11 | Oc1cccc(Cn2c(-c3cccc(O)c3O)nc3ccccc32)c1O | 8.69 | 2340 | – | – | – | –
12 | Cc1ccc(NC(=O)CC/C(CC(=O)c2ccc(Cl)cc2)=N\NC(=O)C(=O)NN)cc1C | – | – | > 100 | > 100 | > 100 | –
13 | CC(=O)O[C@H]1CCC2[C@@H]3CCC4Nc5c(cnn5-c5ccccc5)C[C@]4(C)C3CC[C@@]21C (stereo not given in full) | – | – | 14.4 | 18.8 | 86.5 | TGI (RXF-631 renal): 42.2 µM
14 | Cc1ccc2c(N/N=C\c3ccco3)cc(C)nc2n1 | 26.1 | 6250 | – | – | – | –
15 | N#Cc1nn(C2OC(COC(=O)c3ccccc3)C(OC(=O)c3ccccc3)C2OC(=O)c2ccccc2)c2nc[nH]c(=O)c12 (stereo not given) | > 100 | – | – | – | – | TGI (MDA-N): > 100 µM
16 | O=C(NC1CCN(Cc2ccccc2)CC1)c1cc(C(=O)NC2CCN(Cc3ccccc3)CC2)cc(C(=O)NC2CCN(Cc3ccccc3)CC2)c1 | > 50 | > 50000 | – | – | – | –
17 | c1ccc2c(c1)nnn2CNc1ccc(N2CCOCC2)cc1 | – | – | > 100 | > 100 | > 100 | –
18 | CC1=C2C(=O)C(C)(C)C=C2C(=O)[C@](C)(O)C12CC2 | – | – | > 0.464 | > 1 | > 1 | –
19 | C/C(=N\NS(=O)(=O)c1ccc(C)cc1)c1c(O)cc(C)oc1=O | – | – | – | – | > 100 | –
20 | c1ccc(/N=C2\c3ccccc3CN2c2ccccn2)nc1 | – | – | – | – | – | TGI (MDA-N): > 100 µM
